Data on 2 compounds can be found in PMC9303812, “Asymmetrically Substituted m‐Terphenyl Phosphates Inhibit the Transcription Factor STAT5a” (Chembiochem, 2021).

Test [1] has as its target T1, STAT5b (Homo sapiens, UniProt P51692).
T1 sequence (P51692 1-787): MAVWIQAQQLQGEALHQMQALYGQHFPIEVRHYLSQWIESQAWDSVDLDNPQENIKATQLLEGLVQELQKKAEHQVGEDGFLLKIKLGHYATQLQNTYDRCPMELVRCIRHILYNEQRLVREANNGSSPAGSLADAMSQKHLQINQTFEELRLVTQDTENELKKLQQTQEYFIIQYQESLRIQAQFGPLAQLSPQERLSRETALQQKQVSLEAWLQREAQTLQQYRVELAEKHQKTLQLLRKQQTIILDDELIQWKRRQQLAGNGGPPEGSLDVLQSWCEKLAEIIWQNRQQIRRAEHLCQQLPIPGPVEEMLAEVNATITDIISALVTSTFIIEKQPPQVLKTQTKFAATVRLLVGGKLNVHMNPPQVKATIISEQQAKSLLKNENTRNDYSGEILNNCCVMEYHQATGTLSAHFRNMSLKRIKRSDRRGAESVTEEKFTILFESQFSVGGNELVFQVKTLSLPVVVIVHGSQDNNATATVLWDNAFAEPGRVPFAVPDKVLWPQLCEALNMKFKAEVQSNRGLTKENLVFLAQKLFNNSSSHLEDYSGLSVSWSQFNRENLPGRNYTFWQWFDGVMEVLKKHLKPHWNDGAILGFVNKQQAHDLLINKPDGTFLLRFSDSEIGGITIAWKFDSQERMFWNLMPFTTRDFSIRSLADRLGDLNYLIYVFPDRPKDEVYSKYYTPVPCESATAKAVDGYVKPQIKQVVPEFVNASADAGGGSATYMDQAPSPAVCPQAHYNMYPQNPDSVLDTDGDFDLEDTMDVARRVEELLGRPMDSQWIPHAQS
In words: Fluorescence polarization (FP) binding assay, STAT5b. Here is the method: (§1) Table S1: Activities of test compounds against STAT5a and STAT5b in FP assays . Experiments were carried out in triplicate (n = 3) unless stated otherwise. n/a: not applicable.
(§2) [a]data taken from the literature.[1]
(§3) Ki values were calculated from IC50 values using the published equation.[2] […]
(§4) Table S2: Activities of 12 against STAT5 proteins in FP assays.
(§5) Fluorescence polarization assays
(§6) Fluorescence polarization assays were essentially carried out as previously described.[1] These assays quantitate to which extent a test compound is able to interfere with binding between a STAT protein and a fluorescein-labeled phosphotyrosine-containing peptide, which is known to bind to the SH2 domain of the respective STAT protein. The following protein […]
(§7) concentrations were used: 100 nM for STAT1, 150 nM for STAT3, 30 nM for STAT4, 180 nM for STAT5a, 90 nM for STAT5b and 105 nM for STAT6. All peptides were used at a concentration of 10 nM. The following peptides were used: 5 -carboxyfluorescein -GpYDKPHVL for STAT1; 5-carboxyfluorescein -GpYLPQTV-NH2 for STAT3; 5-carboxyfluorescein-GpYLPQNID-OH for STAT4; 5-carboxyfluorescein-GpYLVLDKW for STAT5a/b, and 5-carboxyfluorescein-GpYVPWQDLI-OH for STAT6. As a buffer system, 10 mM Tris (pH 8.0), 50 mM NaCl, 1 mM EDTA, 1 mM DTT, 0.1 % Nonidet P-40 substitute, and 2 % DMSO in water was used. All compounds tested were incubated for 1 h with the protein. Subsequently, the fluorescein-labeled peptide was added and the fluorescence polarization was measured with an Infinite F500 plate reader (Tecan) after another hour. IC50 values were converted to Ki-values using the published equation.[2]
For orientation: In fluorescence polarisation assays a small probe gives low polarisation when free and higher when bound to something large.

Test [2] concerns the target T2, STAT5a (Homo sapiens, UniProt P42229).
T2 sequence (P42229 1-794): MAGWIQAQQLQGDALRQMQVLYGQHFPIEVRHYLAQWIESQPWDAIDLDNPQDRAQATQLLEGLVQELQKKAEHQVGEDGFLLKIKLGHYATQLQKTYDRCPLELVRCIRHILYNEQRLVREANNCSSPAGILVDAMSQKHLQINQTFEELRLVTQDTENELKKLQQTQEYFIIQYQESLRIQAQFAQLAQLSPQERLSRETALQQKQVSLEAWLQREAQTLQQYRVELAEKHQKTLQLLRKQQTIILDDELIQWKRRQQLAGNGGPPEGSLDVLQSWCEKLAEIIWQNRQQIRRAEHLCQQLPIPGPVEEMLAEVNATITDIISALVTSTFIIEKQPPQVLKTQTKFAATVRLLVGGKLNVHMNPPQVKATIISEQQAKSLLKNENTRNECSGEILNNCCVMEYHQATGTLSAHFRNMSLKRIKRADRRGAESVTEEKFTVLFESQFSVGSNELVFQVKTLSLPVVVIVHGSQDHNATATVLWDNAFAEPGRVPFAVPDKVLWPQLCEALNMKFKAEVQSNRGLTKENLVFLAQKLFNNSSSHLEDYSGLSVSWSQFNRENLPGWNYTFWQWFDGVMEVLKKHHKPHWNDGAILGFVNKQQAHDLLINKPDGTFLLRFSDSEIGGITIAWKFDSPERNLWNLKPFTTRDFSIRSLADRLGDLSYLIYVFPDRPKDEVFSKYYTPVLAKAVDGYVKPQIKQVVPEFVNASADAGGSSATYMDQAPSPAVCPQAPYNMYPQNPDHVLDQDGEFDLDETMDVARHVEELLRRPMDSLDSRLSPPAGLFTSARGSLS
Kind of test: Fluorescence polarization (FP) binding assay, STAT5a. To be noted: for selectivity with respect to other STAT family members: FP assays against STAT1, STAT3, STAT4, STAT6. Here is the method:
as §1, §2, §3, §4, §5, §6, §7

Read-outs that look alike come from different tables or passages of the source.

As for `COc1cc(-c2cc(OP(=O)(O)O)cc(-c3cc(F)c(F)c(F)c3)c2)cc(OC)c1OC` [6 b], in test [1], the half-inhibitory concentration (IC50) (usually the concentration that gives 50% inhibition) came out at 59.4 ± 3.4 µM and affinity was put at a Ki of 29.2 ± 1.7 µM. In addition, in test [2], the half-maximal inhibitory concentration (IC50) came to 22.1 ± 0.4 µM; the Ki (in general, a dissociation constant, usually derived from enzyme kinetics or from competition with a known ligand) came to 10.9 ± 0.2 µM; the “selectivity with respect to other STAT family members” value is listed as “good selectivity”.
Consider `COc1cc(-c2cc(-c3cc(F)c(F)c(F)c3)cc(C(F)P(=O)(O)O)c2)cc(OC)c1OC` (stereo not shown) [compound 12], for which the Ki is 24.9 ± 3.3 µM in test [1] (FP assay, Ki calculated from IC50 (n=3; 6 a n=2), read-out: STAT5b Ki) and 20 ± 2.1 µM in test [2] (FP assay, Ki calculated from IC50 (n=3; 6 a n=2), read-out: STAT5a Ki). For the same compound, the concentration for half-maximal inhibition (IC50) is 50.7 ± 6.8 µM in test [1] (FP assay, n=3 (6a n=2), read-out: STAT5b IC50) and 40.4 ± 4.3 µM in test [2] (FP assay, n=3 (6a n=2), read-out: STAT5a IC50). Moreover, the “selectivity with respect to other STAT family members” value in test [2] is “retains selectivity”.
